Measurements published in US20100041089A1, “IMPROVED METHOD FOR DETECTING CHEMICAL […]” (priority 2006, published 2010).

System: yeast genes (expressed mRNA)
Assay: DNA chip measurement of expressed mRNA of yeast genes after culture with a toxic chemical substance
Type: cell-based, Saccharomyces cerevisiae S288C
Details: for level of expressed mRNA in the presence of chemical substance / level in the absence of chemical substance: cultured two hours with the chemical substance; for The level of expressed mRNA in the presence of chemical substance/The level of expressed mRNA in the absence of chemical substance: cultured two hours with substance
Description: Yeast (Saccharomyces cerevisiae S288C (a SUC2mal mel gap2 CUP1)) were cultured at 25° C. on YPD medium (yeast extract 1%, polypeptone 2%, glucose 2%). One of toxic chemical substances was added to the cell at logarithmic growth phase, and the cell was further cultured for two hours. Cell was cultured without any chemical substance in the same condition, and was used as a control. Concentrations of the chemical substances were defined to inhibit the growth of the yeast but not lead to death.
After the completion of cultivation, the culture was centrifuged to collect the cells. To the cells, sodium acetate buffer (50 mM sodium acetate, 10 mM EDTA, 1% SDS) was added, and the mixture was shaken at 65° C. for five minutes, followed by returning to room temperature, and obtaining the supernatant, which procedure was repeated two times. To the supernatant, ½ amount of a solution of phenol/chloroform (1:1) was added, and the mixture was centrifuged to give a supernatant, an equal amount of chloroform was added, and the mixture was centrifuged to give a supernatant. To the supernatant, an equal amount of isopropanol containing 0.3 M sodium acetate was added, and the mixture was allowed to stand at room temperature for 30 minutes, after which the mixture was centrifuged to give sediment of the whole RNAs. Seventy % ethanol was added to the sediment, and the mixture was again centrifuged to give sediment, which was then dried and dissolved in water. mRNA was isolated from the whole RNAs as followings. In view of the fact that a poly A chain is attached to the 3′ terminus of mRNA, a polynucleotide having a poly T structure which was immobilized on the surface of latex beads was used to trap the mRNA, and then the mRNA was washed and eluted with spine column (Oligotex-dT30<Super>mRNA Purification Kit, Takara). Reverse transcription of the mRNA was conducted with a reverse transcriptase (Super Script II Reverse Transcriptase; catalogue No. 18064-014, GibcoBRL) using fluorescence-labeled nucleotides to give cDNAs that were introduced with Cy3-dUTP or Cy5-dUTP during the reverse transcription.
The labeled cDNAs were dissolved in TE buffer (10 mM Tris-HCl/1 mM EDTA, pH 8.0), and the solution was dropped on the DNA chip containing the whole genes of yeast (DNA Chip Research Inc. Japan) so that the cDNAs were hybridized on the DNA chip at 65° C. for over 12 hours. The fluoresces intensity of the DNA chip was read with a scanner, and the ratio relative to the fluorescence intensity resulting from the absence of chemical substance was estimated as the following, which is shown in Tables 1 to 9.
In the Tables, “Intensity” indicated in the rightmost column is a value of the level of expressed mRNA of each gene in control cells as divided by the average level of the expressions of the whole genes. A gene of which mRNA level is lower in control, and is higher in cases of addition of chemical substance, is especially useful in the detection of toxic substances.
Here, when a ratio of an amount of mRNA expressed in the presence of the chemical substance to an amount of mRNA expressed in the absence of the chemical substance is two or more, then it is considered significant.

SMILES: Cl[C@H]1[C@H](Cl)[C@@H](Cl)[C@@H](Cl)[C@H](Cl)[C@H]1Cl [(7), γ-Hexachlorocyclohexane]
- level of expressed mRNA in the presence of chemical substance / level in the absence of chemical substance (yeast gene YDR133C): 0.2
- level of expressed mRNA in the presence of chemical substance / level in the absence of chemical substance (yeast gene YDR250C): 1.0
- level of expressed mRNA in the presence of chemical substance / level in the absence of chemical substance (yeast gene YDR278C): 0.7
- level of expressed mRNA in the presence of chemical substance / level in the absence of chemical substance (yeast gene YDR281C): 0.6
- The level of expressed mRNA in the presence of chemical substance/The level of expressed mRNA in the absence of chemical substance (yeast gene YDR330W): 1.3
- level of expressed mRNA in the presence of chemical substance / level in the absence of chemical substance (yeast gene YDR366C): 1.5
- The level of expressed mRNA in the presence of chemical substance/The level of expressed mRNA in the absence of chemical substance (yeast gene YDR411C): 2.0
- The level of expressed mRNA in the presence of chemical substance/The level of expressed mRNA in the absence of chemical substance (yeast gene YDR511W): 1.5
- The level of expressed mRNA in the presence of chemical substance/The level of expressed mRNA in the absence of chemical substance (yeast gene YDR545W): 1.2
- The level of expressed mRNA in the presence of chemical substance/The level of expressed mRNA in the absence of chemical substance (yeast gene YEL001C): 1.1
- The level of expressed mRNA in the presence of chemical substance/The level of expressed mRNA in the absence of chemical substance (yeast gene YER004W): 1.4
- The level of expressed mRNA in the presence of chemical substance/The level of expressed mRNA in the absence of chemical substance (yeast gene YER035W): 1.9
- The level of expressed mRNA in the presence of chemical substance/The level of expressed mRNA in the absence of chemical substance (yeast gene YER079W): 1.9
- The level of expressed mRNA in the presence of chemical substance/The level of expressed mRNA in the absence of chemical substance (yeast gene YER106W): 1.0
- The level of expressed mRNA in the presence of chemical substance/The level of expressed mRNA in the absence of chemical substance (yeast gene YER158C): 1.2
- The level of expressed mRNA in the presence of chemical substance/The level of expressed mRNA in the absence of chemical substance (yeast gene YER163C): 1.5
- The level of expressed mRNA in the presence of chemical substance/The level of expressed mRNA in the absence of chemical substance (yeast gene YER175C): 2.3
- The level of expressed mRNA in the presence of chemical substance/The level of expressed mRNA in the absence of chemical substance (yeast gene YFL006W): 1.0
- The level of expressed mRNA in the presence of chemical substance/The level of expressed mRNA in the absence of chemical substance (yeast gene YFL010C): 1.5
- The level of expressed mRNA in the presence of chemical substance/The level of expressed mRNA in the absence of chemical substance (yeast gene YFL024C): 3.3
- The level of expressed mRNA in the presence of chemical substance/The level of expressed mRNA in the absence of chemical substance (yeast gene YFL032W): 1.1
- level of expressed mRNA in the presence of chemical substance / level in the absence of chemical substance (yeast gene YFR026C): 1.3
- The level of expressed mRNA in the presence of chemical substance/The level of expressed mRNA in the absence of chemical substance (yeast gene YGL037C): 2.9
- The level of expressed mRNA in the presence of chemical substance/The level of expressed mRNA in the absence of chemical substance (yeast gene YGL047W): 1.7
- The level of expressed mRNA in the presence of chemical substance/The level of expressed mRNA in the absence of chemical substance (yeast gene YGL053W): 3.7
- level of expressed mRNA in the presence of chemical substance / level in the absence of chemical substance (yeast gene YGL088W): 1.0
- The level of expressed mRNA in the presence of chemical substance/The level of expressed mRNA in the absence of chemical substance (yeast gene YGL121C): 4.7
- The level of expressed mRNA in the presence of chemical substance/The level of expressed mRNA in the absence of chemical substance (yeast gene YGL199C): 1.3
- level of expressed mRNA in the presence of chemical substance / level in the absence of chemical substance (yeast gene YGR038W): 1.1
- The level of expressed mRNA in the presence of chemical substance/The level of expressed mRNA in the absence of chemical substance (yeast gene YGR101W): 1.5
- The level of expressed mRNA in the presence of chemical substance/The level of expressed mRNA in the absence of chemical substance (yeast gene YGR110W): 1.7
- The level of expressed mRNA in the presence of chemical substance/The level of expressed mRNA in the absence of chemical substance (yeast gene YGR130C): 1.3
- level of expressed mRNA in the presence of chemical substance / level in the absence of chemical substance (yeast gene YGR139W): 0.8
- The level of expressed mRNA in the presence of chemical substance/The level of expressed mRNA in the absence of chemical substance (yeast gene YGR154C): 2.0
- The level of expressed mRNA in the presence of chemical substance/The level of expressed mRNA in the absence of chemical substance (yeast gene YGR221C): 1.2
- level of expressed mRNA in the presence of chemical substance / level in the absence of chemical substance (yeast gene YGR243W): 1.9
- level of expressed mRNA in the presence of chemical substance / level in the absence of chemical substance (yeast gene YGR293C): 1.3
- level of expressed mRNA in the presence of chemical substance / level in the absence of chemical substance (yeast gene YHL006C): 1.2
- level of expressed mRNA in the presence of chemical substance / level in the absence of chemical substance (yeast gene YHR095W): 0.8
- level of expressed mRNA in the presence of chemical substance / level in the absence of chemical substance (yeast gene YHR105W): 0.9
- The level of expressed mRNA in the presence of chemical substance/The level of expressed mRNA in the absence of chemical substance (yeast gene YHR138C): 3.0
- level of expressed mRNA in the presence of chemical substance / level in the absence of chemical substance (yeast gene YHR181W): 0.8
- The level of expressed mRNA in the presence of chemical substance/The level of expressed mRNA in the absence of chemical substance (yeast gene YHR199C): 1.1
- The level of expressed mRNA in the presence of chemical substance/The level of expressed mRNA in the absence of chemical substance (yeast gene YIL023C): 1.2
- The level of expressed mRNA in the presence of chemical substance/The level of expressed mRNA in the absence of chemical substance (yeast gene YIL041W): 0.8
- The level of expressed mRNA in the presence of chemical substance/The level of expressed mRNA in the absence of chemical substance (yeast gene YIL087C): 1.8
- level of expressed mRNA in the presence of chemical substance / level in the absence of chemical substance (yeast gene YIL127C): 0.6
- level of expressed mRNA in the presence of chemical substance / level in the absence of chemical substance (yeast gene YJL017W): 0.2
- level of expressed mRNA in the presence of chemical substance / level in the absence of chemical substance (yeast gene YJL037W): 1.2
- The level of expressed mRNA in the presence of chemical substance/The level of expressed mRNA in the absence of chemical substance (yeast gene YJL057C): 2.7
- The level of expressed mRNA in the presence of chemical substance/The level of expressed mRNA in the absence of chemical substance (yeast gene YJL066C): 1.6
- The level of expressed mRNA in the presence of chemical substance/The level of expressed mRNA in the absence of chemical substance (yeast gene YJL082W): 0.4
- level of expressed mRNA in the presence of chemical substance / level in the absence of chemical substance (yeast gene YJL097W): 1.0
